Patent US20240025887A1, “THIENYL AND CYCLOALKYL AMINOPYRIMIDINE COMPOUNDS AS INHIBITORS OF NUAK KINASES, COMPOSITIONS AND USES THEREOF” (Ontario Institute for Cancer Research (OICR), priority 2021, published 2024)

What was measured:
NUAK2 (h) = biological target: T1, NUAK2 (h) (Homo sapiens, UniProt Q9H093); experiment: NUAK2 enzymatic assay (radiometric, Eurofins); assay type: biochemical; conditions: for AUR-A (IC50, nM)/NUAK2 (IC50, nM): NUAK2 selectivity over Aurora-A, ratio of IC50s; for IC50: radiometric, full-length recombinant enzyme
T1 construct: This assay was done radiometrically using full-length, recombinant enzyme; purchased Eurofins
T1 sequence (Q9H093 1-628): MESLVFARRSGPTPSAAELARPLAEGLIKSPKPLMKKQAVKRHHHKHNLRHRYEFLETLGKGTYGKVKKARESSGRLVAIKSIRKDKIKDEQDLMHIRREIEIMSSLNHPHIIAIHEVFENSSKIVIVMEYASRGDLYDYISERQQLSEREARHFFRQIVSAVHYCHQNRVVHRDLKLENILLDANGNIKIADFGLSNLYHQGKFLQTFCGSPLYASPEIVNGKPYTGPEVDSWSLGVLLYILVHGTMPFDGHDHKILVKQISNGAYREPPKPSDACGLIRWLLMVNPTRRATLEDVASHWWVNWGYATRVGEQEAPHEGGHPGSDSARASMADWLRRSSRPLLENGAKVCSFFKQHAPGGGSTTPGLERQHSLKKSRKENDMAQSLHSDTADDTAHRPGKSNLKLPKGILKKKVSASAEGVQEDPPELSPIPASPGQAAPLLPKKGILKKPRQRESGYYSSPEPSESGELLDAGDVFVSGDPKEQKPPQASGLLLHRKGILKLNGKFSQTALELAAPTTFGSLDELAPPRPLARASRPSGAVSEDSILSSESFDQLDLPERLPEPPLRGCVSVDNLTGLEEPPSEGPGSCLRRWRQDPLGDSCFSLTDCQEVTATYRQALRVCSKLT
Procedure, shortened: (§1)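 Radiometric assay with full-length recombinant NUAK2 in 8 mM MOPS pH 7.0, 0.2 mM EDTA, 10 mM magnesium acetate, 300 μM peptide substrate and [33P]-ATP, 40 min at room temperature. Phosphoric acid stop, filter capture, scintillation counting. Aurora A and NUAK1 used as counter screens.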

NUAK1 = biological target: T2, NUAK1 (Homo sapiens, UniProt O60285); experiment: NUAK1 counter screen; assay type: biochemical
T2 sequence (O60285 1-661): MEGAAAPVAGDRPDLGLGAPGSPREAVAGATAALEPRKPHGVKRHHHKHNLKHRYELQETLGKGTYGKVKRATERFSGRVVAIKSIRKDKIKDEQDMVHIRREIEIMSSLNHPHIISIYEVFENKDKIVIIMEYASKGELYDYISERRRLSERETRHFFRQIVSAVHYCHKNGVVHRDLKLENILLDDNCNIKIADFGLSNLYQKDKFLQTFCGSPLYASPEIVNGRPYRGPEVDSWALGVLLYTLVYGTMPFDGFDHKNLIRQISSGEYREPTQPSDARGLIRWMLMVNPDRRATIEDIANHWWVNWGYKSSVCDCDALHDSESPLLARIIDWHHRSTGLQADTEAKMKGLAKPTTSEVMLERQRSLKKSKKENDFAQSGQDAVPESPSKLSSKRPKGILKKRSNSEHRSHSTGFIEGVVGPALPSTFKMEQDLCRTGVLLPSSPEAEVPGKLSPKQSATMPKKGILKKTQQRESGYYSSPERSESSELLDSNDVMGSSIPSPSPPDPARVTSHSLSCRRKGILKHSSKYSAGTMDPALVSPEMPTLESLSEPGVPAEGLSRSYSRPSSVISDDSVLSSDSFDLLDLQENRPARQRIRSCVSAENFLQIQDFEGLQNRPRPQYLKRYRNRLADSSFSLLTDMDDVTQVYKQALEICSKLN
Procedure, shortened: as §1

Aurora A = biological target: T3, Aurora A (Homo sapiens, UniProt O14965); experiment: Aurora A counter screen; assay type: biochemical; conditions: read-out: AUR-A (IC50)
T3 sequence (O14965 1-403): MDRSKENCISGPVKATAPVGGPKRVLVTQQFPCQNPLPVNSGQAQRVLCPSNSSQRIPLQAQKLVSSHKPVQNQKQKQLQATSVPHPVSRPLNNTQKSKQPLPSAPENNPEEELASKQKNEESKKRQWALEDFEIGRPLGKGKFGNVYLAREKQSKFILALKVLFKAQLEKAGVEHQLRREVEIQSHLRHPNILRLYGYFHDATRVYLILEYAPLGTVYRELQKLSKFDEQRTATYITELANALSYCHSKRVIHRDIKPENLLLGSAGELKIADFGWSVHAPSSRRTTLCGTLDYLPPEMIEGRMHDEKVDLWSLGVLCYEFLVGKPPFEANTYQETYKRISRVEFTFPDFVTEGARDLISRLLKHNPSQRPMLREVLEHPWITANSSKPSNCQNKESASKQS
Procedure, shortened: as §1

[1] = test system: YAP/TAZ nuclear localization in Clover-YAP expressing MDA-MB-231 cells; experiment: Cell-based YAP/TAZ localization assay; conditions: Clover-YAP MDA-MB-231 cells, live imaging every 10 min for 2 h, FIG. 1
Procedure: Compounds of the application were tested for their ability to inhibit localization of YAP/TAZ to the nucleus of cells using an assay generally described in Nature Communications, 2018, 9:3510. Live cell imaging of Clover-YAP expressing MDA-MB-231 cells was carried out using a custom WAVE-FX-X1 spinning disc confocal system (Quorum Technologies) with a modified Yokogawa CSU-X1 scanhead on an AxioObserver Z1 inverted microscope (Carl Zeiss) with a x40 NA 1.2 Plan Apochromat (Carl Zeiss) objective. Cells were plated in a 35 mm glass-bottom dish (Mat-Tek, P35G-1.5-14-C) and were maintained in a stage-top incubator at 37° C. and 5% CO2 during imaging. Cells were cultured in phenol-red free RPMI medium (Thermo Fisher Scientific, 11835030) with 5% FBS and 200 nM SiR-DNA (Spirochrom, S0007) was added 1 h prior to imaging to visualize the nuclei. Localization of Clover-YAP was monitored every 10 min for 2 h. Volocity software was used for image acquisition and processing.

MDA-MB-231 cells = experiment: Tumor cell growth inhibition assay (ATPlite); assay type: cell-based; conditions: Homo sapiens, 120 h, MDA-MB-231 breast tumor cell line, 5 days
Procedure: MDA-MB-231 cells were seeded into a 384-well plate at 1,000 cells/well in 50 μl medium (Alpha-MEM containing 10% FBS, […] Normocin, Invivogen and […] Gentamycin, Invitrogen). Plates were then incubated overnight for the cells to attach. An HP D300 digital dispenser was used to dose cells with DMSO or test compounds across a 16-point range of concentrations (high dose of 10 uM to low dose of 5 nM). Plates were incubated in a humidified 5% CO2 incubator at 37° C. After 5 days, plates were removed from the incubator and equilibrated to room temperature. An equal volume of ATPlite assay reagent was then added to each well, and samples processed according to manufacturer's instructions (Perkin Elmer). Luminescent signals were then measured using an Envision plate reader equipped with a US-Luminescence detector.

[2] = test system: pSer445 MYPT1 in MDA-MB-231 cells; experiment: Cell-based phospho-MYPT1 assay; conditions: 500 nM, 1 hour, immunoblot, FIG. 2
Procedure: Compounds with sufficient activity in the biochemical NUAK assay were evaluated in a cell-based assay to confirm their targeted activity. To allow direct assessment of target engagement by NUAK2 inhibitors in cells, an antibody to MYPT1, a NUAK2 substrate, which specifically recognizes the phosphorylated Ser445 epitope in endogenous MYPT1 protein was utilized (Biochem J. 2014 457 (Pt 1): 215-225; Biochem J. 201 461 (Pt 2): 233-245).
MDA-MB-231 cells were incubated in the absence (DMSO) or presence of Compound I-1 (500 nM) for 1 hour. Cell were lysed at 4° C. for 30 mins in RIPA buffer (50 mM tris-HCL, 150 mM NaCl, 1 mM EDTA, 0.1% SDS, 1% NP-40, 0.5% Sodium deoxycholate) containing protease and phosphatase inhibitors. Samples were separated by sodium dodecyl sulfate-polyacrylamide gel electrophoresis (SDS-PAGE), transferred to nitrocellulose and immunoblotted for the detection of pSer^445MYPT1 or ACTIN.

[3] = test system: YAP/TAZ transcriptional function in several cancer cell lines; conditions: PCR; cited from earlier work
[4] = test system: YAP/TAZ nuclear localization in several cancer cell lines; conditions: IF confocal microscopy; cited from earlier work

Row | Structure (SMILES) | AUR-A (IC50, nM)/NUAK2 (IC50, nM) (NUAK2 (h)) | IC50 (NUAK2 (h)) [nM] | IC50 (NUAK1) [nM] | IC50 (Aurora A) [nM] | inhibition of YAP/TAZ nuclear localization [1] | IC50 (MDA-MB-231 cells) [nM] | formation of cellular p-MYPT1 (pSer445) [2] | YAP/TAZ transcriptional function (target gene expression) [3] | YAP/TAZ nuclear localization [4]
1 | CN1CCN(c2ccc(Nc3ncc(Cl)c(Nc4ccsc4C(N)=O)n3)c(OC(F)F)c2)CC1 [Compound I-1, 3-((5-chloro-2-((2-(difluoromethoxy)-4-(4-methylpiperazin-1-yl)phenyl)amino)pyrimidin-4-yl)amino)thiophene-2-carboxamide] | 40 | 0.1 to 10 | 11 to 100 | 101 to 1000 | significant improvement in inhibition of YAP/TAZ nuclear localization | 195 | inhibits the formation of cellular p-MYPT1 | – | –
2 | CN1CCN(c2ccc(Nc3ncc(Cl)c(N[C@@H]4CCCC[C@H]4C(N)=O)n3)c(OC(F)F)c2)CC1 [Compound I-82, (1R,2R)-2-((5-chloro-2-((2-(difluoromethoxy)-4-(4-methylpiperazin-1-yl)phenyl)amino)pyrimidin-4-yl)amino)cyclohexane-1-carboxamide] | 176 | 0.1 to 10 | 11 to 100 | 101 to 1000 | – | 858 | – | – | –
3 | CC(C)N1CCN(C2CCN(c3ccc(Nc4ncc(C(F)(F)F)c(Nc5ccsc5C(N)=O)n4)c(OC(F)F)c3)CC2)CC1 [Compound I-78, 3-((2-((2-(difluoromethoxy)-4-(4-(4-isopropylpiperazin-1-yl)piperidin-1-yl)phenyl)amino)-5-(trifluoromethyl)pyrimidin-4-yl)amino)thiophene-2-carboxamide] | – | 11 to 100 | 11 to 100 | 101 to 1000 | – | 96 | – | – | –
4 | CN1CCN(c2ccc(Nc3ncc(C#N)c(Nc4ccsc4C(N)=O)n3)c(OC(F)F)c2)CC1 [Compound I-38, 3-((5-cyano-2-((2-(difluoromethoxy)-4-(4-methylpiperazin-1-yl)phenyl)amino)pyrimidin-4-yl)amino)thiophene-2-carboxamide] | – | 0.1 to 10 | 11 to 100 | 101 to 1000 | – | 120 | – | – | –
5 | CN1CCN(c2ccc(Nc3ncc(Cl)c(Nc4ccsc4C(N)=O)n3)c(OC(F)F)c2F)CC1 [Compound I-42, 3-((5-chloro-2-((2-(difluoromethoxy)-3-fluoro-4-(4-methylpiperazin-1-yl)phenyl)amino)pyrimidin-4-yl)amino)thiophene-2-carboxamide] | 86 | 11 to 100 | 11 to 100 | > 1000 | – | 653 | – | – | –
6 | CCC(=O)Nc1cccc(Oc2nc(Nc3ccc(N4CCN(C)CC4)cc3OC)ncc2Cl)c1 [WZ4003] | – | – | – | – | – | – | – | attenuates transcriptional function | a block of YAP/TAZ nuclear localization
7 | CN1CCN(c2ccc(Nc3ncc4cc(C#N)c(=O)n(C5CCCC5)c4n3)cc2)CC1 [ON123300] | – | – | – | – | – | – | – | attenuates transcriptional function | a block of YAP/TAZ nuclear localization
8 | CN1CCCN(C2CCN(c3ccc(Nc4ncc(C(F)(F)F)c(Nc5ccsc5C(N)=O)n4)c(OC(F)F)c3)CC2)CC1 [Compound I-75, 3-((2-((2-(difluoromethoxy)-4-(4-(4-methyl-1,4-diazepan-1-yl)piperidin-1-yl)phenyl)amino)-5-(trifluoromethyl)pyrimidin-4-yl)amino)thiophene-2-carboxamide] | – | 0.1 to 10 | 11 to 100 | 101 to 1000 | – | 120 | – | – | –
